Publication PMC9916883, “Betaine- and L-Carnitine-Based Ionic Liquids as Solubilising and Stabilising Agents for the Formulation of Antimicrobial Eye Drops Containing Diacerein” (International Journal of Molecular Sciences, 2023)
Values joined by “and” are separate entries in the source; they are usually repeats but may differ in a detail not shown here. Equal values may be shown once. Read-outs that look alike come from different tables or passages of the source.

Legend:
[1] = test system: BALB/3T3 clone A31 fibroblast cells; experiment: Cytotoxicity screening (WST-1); type: cell-based, murine; details: Mus musculus, 4 h incubation, read-out: IC50 of cell viability
Description: BALB/3T3 clone A31 fibroblast cells were grown in Dulbecco’s Modified Eagle Medium (DMEM), supplemented with 2 mM L-glutamine, 1% penicillin/streptomycin, and 10% bovine calf serum. Cells were grown in a CO2 incubator (Heracell 150i series) at 37 °C and 5% CO2, with cells sub-cultured at 80–90% confluency. The cell monolayers were rinsed with PBS and treated with trypsin–EDTA to detach the cells before their resuspension in fresh media. A subconfluent monolayer of BALB/3T3 clone A31 fibroblast cells was trypsinised, centrifuged at 1000 rpm for 5 min, resuspended in growth medium, and counted.
A cytotoxicity screening was carried out for both ILs (range […]), as well as DIA and Rhe (0.5–200 mg/mL). Briefly, BALB/3T3 clone A31 fibroblast cells were seeded in each well of 96-well plates at a seeding density of 6 × 10^3 cells/well for 24 h, until 60–70% confluence was reached. After 24 h, the medium was then removed from each well and replaced with DMEM containing the samples.
After 4 h of incubation, the media were removed, replaced with fresh medium containing 10% WST-1 reagent solution, and maintained for 4 h at 37° C with 5% CO2. Afterwards, formazan dye absorbance was quantified at 450 nm with the reference wavelength at 655 nm by using a multilabel reader (BioTek 800/TS, Thermo Scientific).

S. aureus W4 = experiment: Killing assay; type: cell-based, Staphylococcus aureus; details: 3 h incubation in 5% TSB, ILs 0.27 M; for bactericidal effect: DIA 0.34 M; for CFU after treatment (limit of detection): DIA 0.34 M if loaded
Description: (§1) To this end, the bacterial strains were grown in TSB until the exponential phase, and approximately 5 × 10^4 CFU/mL-contained in 10 μL-was added to 5 μL of TSB, 35 μL of water, and 50 μL of one of the following solutions corresponding to the eye drop compositions tested in vivo: Bet6 or Carn6 with 0.27 M or 0.34 M DIA, plain DIA (0.34 M) solution, or plain Bet6/plain Carn6, both at 0.27 M. All solutions were prepared in CB. The samples were incubated at 37 °C with shaking for 3 h. A sample containing 0.6% DMSO (corresponding to the highest concentration of DMSO tested) was used as a control. Following incubation, the samples were diluted 10-fold in LB and plated on tryptone soy agar (TSA, Oxoid) to determine the number of CFU. Bactericidal activity was defined as a reduction of at least 3 Log10 in the number of viable bacteria as compared to the inoculum.

[2] = IL aggregates' size and zeta potential in aqueous solutions (DLS, Zetasizer); type: physicochemical
Description: The size distribution and zeta potential values of the ILs’ aggregates in aqueous solutions were evaluated by using a Zetasizer Nano ZS (Malvern) at 25 °C. The samples were prepared by adding an excess of either DIA or Rhe (5 mg/mL) to the aqueous IL solutions, incubating them for 30 min at 25 °C, and finally removing the excess drugs by centrifugation. […] In contrast, for PB solutions, the solutions were prepared in water, and […] of 100 mM pH 7 phosphate buffer was added per 1 mL of aqueous solution, directly in the cuvette, before the dynamic light scattering (DLS) analysis started. The concentrations of the solubilised drug were determined by UV–Vis analysis.

[3] = Critical aggregation concentration (CAC) by surface tension; type: physicochemical; details: in water; for critical aggregation concentration (CAC): via surface tension
Description: The CACs of the ILs were determined by measuring the surface tension (Tensiometer du Nouy, Force Tensiometer K6 from KRÜSS (GmbH)) of aqueous solutions with increasing IL concentrations. Milli-Q H2O was used as a reference, with γ equal to 71 ± 1.3 mN/m at 25 ± 2 °C (Dortmund databank reference, 71.5 ± 0.5 mN/m 24 ± 1.4 °C). Surface tension values were plotted vs. logarithms of the ILs’ concentrations, linear fits were applied to the data points, and CAC was determined as the intersection of the two linear fits relative to the initial surface tension depression and the further plateau.

[4] = test system: type II porcine gastric mucin; experiment: Mucoadhesion by microrheological method; type: physicochemical
Description: The measurements were performed using the Zetasizer Nano ZS instrument, as previously reported. The microrheological characterisation of the ILs was performed using type II porcine gastric mucin. Porcine gastric mucin was used because no ocular mucins were available, and as it has already been used for ocular models. Briefly, a 3 mg/mL suspension of type II porcine gastric mucin was prepared in Milli-Q water and filtered through 0.45 µm cellulose acetate filters. Next, 0.27 M and 0.20 M solutions of both ionic liquids in deionised water were prepared (corresponding to concentrations 15% higher and lower than the CAC, respectively). One millilitre of each sample to be tested had the following composition: 5 µL of tracer (latex polystyrene particles, diameter 500 nm, Beckman), 7.38 mg/mL of IL solution, 0.3 mg of mucin, and 8.1 mg/mL of 5% NaCl. As a reference, 1 mL of sample was prepared with the same composition but without the ILs. All measurements were carried out in triplicate.

P. aeruginosa ATCC 27853 = experiment: Killing assay; type: cell-based, Pseudomonas aeruginosa; details: 3 h incubation in 5% TSB, ILs 0.27 M; for bactericidal effect: DIA 0.34 M; for CFU after treatment (limit of detection): DIA 0.34 M if loaded
Description: as §1

[5] = IL 180 μg/mL, DIA + (saturation), CB pH5
[6] = IL 180 μg/mL, Rhe + (saturation), PB pH7
[7] = IL 200 μg/mL, DIA + (saturation), CB pH5
[8] = IL 200 μg/mL, DIA + (saturation), H2O pH4
[9] = IL 200 μg/mL, Rhe + (saturation), H2O pH4
[10] = mucin with IL at 0.20 M (lower than CAC)
[11] = mucin with IL at 0.27 M (higher than CAC)

For CCCCCCOC(=O)C[N+](C)(C)C.[Br-] [Bet6, (2-hexyloxy-2-oxoethyl)-trimethylammonium bromide], the IC50 [1] was 7500 µg/mL, the IC50 ([1]; murine fibroblasts) was 26.8 mM and the bactericidal effect (S. aureus W4) was “strong bactericidal effect”. For the same compound, the “CFU after treatment (limit of detection)” value (S. aureus W4) was < 100 CFU/mL, the PDI ([2]; IL 90 μg/mL, no drug, H2O pH4) was 0.01 ± 0.002 and the “Ø (aggregates size)” value ([2]; IL 90 μg/mL, no drug, H2O pH4) was 0.80 ± 0.03 nm. The PDI ([2]; IL 105 μg/mL, no drug, H2O pH4) was 0.01 ± 0.005, the “Ø (aggregates size)” value ([2]; IL 105 μg/mL, no drug, H2O pH4) was 0.96 ±0.07 nm and the PDI ([2]; IL 170 μg/mL, no drug, H2O pH4) was 0.01 ± 0.005. For the same compound, the “Ø (aggregates size)” value ([2]; IL 170 μg/mL, no drug, H2O pH4) was 1.96 ± 0.30 nm, the PDI [2, 5] was 0.01 ± 0.005 and the “Ø (aggregates size)” value [2, 5] was 1.73 ± 0.40 nm. The “ζ (zeta potential)” value [2, 5] was 2.82 ± 1.17 mV, the PDI [2, 6] was 0.03 ± 0.005 and the “Ø (aggregates size)” value [2, 6] was 1.71 ± 0.49 nm. The “ζ (zeta potential)” value [2, 6] was 5.77 ± 0.54 mV, the PDI ([2]; IL 180 μg/mL, no drug, CB pH5) was 0.01 ± 0.005 and the “Ø (aggregates size)” value ([2]; IL 180 μg/mL, no drug, CB pH5) was 1.76 ± 0.38 nm. The “ζ (zeta potential)” value ([2]; IL 180 μg/mL, no drug, CB pH5) was 0.65 ± 0.53 mV, the PDI ([2]; IL 180 μg/mL, no drug, PB pH7) was 0.01 ± 0.005 and the “Ø (aggregates size)” value ([2]; IL 180 μg/mL, no drug, PB pH7) was 1.79 ± 0.41 nm. The “ζ (zeta potential)” value ([2]; IL 180 μg/mL, no drug, PB pH7) was 8.93 ± 0.94 mV, the PDI [2, 7] was 0.02 ± 0.005 and the “Ø (aggregates size)” value [2, 7] was 2.01 ± 0.60 nm. The “ζ (zeta potential)” value [2, 7] was 0.16 ± 1.85 mV, the PDI [2, 8] was 0.02 ± 0.005 and the “Ø (aggregates size)” value [2, 8] was 1.69 ± 0.92 nm. For the same compound, the “ζ (zeta potential)” value [2, 8] was 9.53 ± 1.68 mV, the PDI [2, 9] was 0.01 ±0.005 and the “Ø (aggregates size)” value [2, 9] was 1.63 ± 0.21 nm. For the same compound, the “ζ (zeta potential)” value [2, 9] was 8.17 ± 0.94 mV, the PDI ([2]; IL 200 μg/mL, no drug, CB pH5) was 0.03 ± 0.005 and the “Ø (aggregates size)” value ([2]; IL 200 μg/mL, no drug, CB pH5) was 1.97 ± 0.44 nm. The “ζ (zeta potential)” value ([2]; IL 200 μg/mL, no drug, CB pH5) was 2.62 ± 0.96 mV, the PDI ([2]; IL 200 μg/mL, no drug, H2O pH4) was 0.01 ± 0.005 and the “Ø (aggregates size)” value ([2]; IL 200 μg/mL, no drug, H2O pH4) was 1.81 ± 0.41 nm. For the same compound, the “ζ (zeta potential)” value ([2]; IL 200 μg/mL, no drug, H2O pH4) was 13.70 ± 1.60 mV, the “surface tension at the CAC (σ)” value [3] was 34.2 mN/m and the “critical aggregation concentration (CAC)” value [3] was 0.227 M and 0.227 ± 0.016 M. The “Relative Viscosity” value [4, 10] was 0.79 ± 0.01 cP, the “Relative Viscosity” value [4, 11] was 1.32 ± 0.13 cP and the bactericidal effect (P. aeruginosa ATCC 27853) was “strong bactericidal effect”. The “CFU after treatment (limit of detection)” value (P. aeruginosa ATCC 27853) was < 100 CFU/mL.
In the case of CCCCCCOC(=O)C[C@@H](O)C[N+](C)(C)C [Carn6, (R)-(4-hexyloxy-2-hydroxy-4-oxobutyl)-trimethylammonium bromide], the IC50 [1] is reported as 9000 µg/mL, the IC50 ([1]; murine fibroblasts) is reported as 27.8 mM and the bactericidal effect (S. aureus W4) is reported as “strong bactericidal effect”. The “CFU after treatment (limit of detection)” value (S. aureus W4) was < 100 CFU/mL, the PDI ([2]; IL 90 μg/mL, no drug, H2O pH4) was 0.01 ± 0.002 and the “Ø (aggregates size)” value ([2]; IL 90 μg/mL, no drug, H2O pH4) was 1.17 ± 0.03 nm. The PDI ([2]; IL 105 μg/mL, no drug, H2O pH4) was 0.01 ± 0.002, the “Ø (aggregates size)” value ([2]; IL 105 μg/mL, no drug, H2O pH4) was 1.53 ± 0.07 nm and the PDI ([2]; IL 170 μg/mL, no drug, H2O pH4) was 0.03 ± 0.016. For the same compound, the “Ø (aggregates size)” value ([2]; IL 170 μg/mL, no drug, H2O pH4) was 2.12 ± 0.14 nm, the PDI [2, 5] was 0.01 ± 0.005 and the “Ø (aggregates size)” value [2, 5] was 2.24 ± 0.47 nm. The “ζ (zeta potential)” value [2, 5] was 1.85 ± 0.47 mV, the PDI [2, 6] was 0.02 ± 0.005 and the “Ø (aggregates size)” value [2, 6] was 2.03 ± 0.46 nm. For the same compound, the “ζ (zeta potential)” value [2, 6] was 9.38 ± 1.22 mV, the PDI ([2]; IL 180 μg/mL, no drug, CB pH5) was 0.01 ± 0.005 and the “Ø (aggregates size)” value ([2]; IL 180 μg/mL, no drug, CB pH5) was 2.04 ± 0.43 nm. For the same compound, the “ζ (zeta potential)” value ([2]; IL 180 μg/mL, no drug, CB pH5) was 2.56 ± 0.34 mV, the PDI ([2]; IL 180 μg/mL, no drug, PB pH7) was 0.004± 0.005 and the “Ø (aggregates size)” value ([2]; IL 180 μg/mL, no drug, PB pH7) was 1.91 ± 0.27 nm. The “ζ (zeta potential)” value ([2]; IL 180 μg/mL, no drug, PB pH7) was 10.70 ± 1.16 mV, the PDI [2, 7] was 0.01 ± 0.005 and the “Ø (aggregates size)” value [2, 7] was 2.40 ± 0.56 nm. The “ζ (zeta potential)” value [2, 7] was 4.17 ± 0.20 mV, the PDI [2, 8] was 0.02 ± 0.005 and the “Ø (aggregates size)” value [2, 8] was 2.14 ± 0.55 nm. For the same compound, the “ζ (zeta potential)” value [2, 8] was 12.20 ± 1.96 mV, the PDI [2, 9] was 0.02 ± 0.005 and the “Ø (aggregates size)” value [2, 9] was 2.11 ± 0.50 nm. For the same compound, the “ζ (zeta potential)” value [2, 9] was 12.80 ± 1.27 mV, the PDI ([2]; IL 200 μg/mL, no drug, CB pH5) was 0.07 ± 0.005 and the “Ø (aggregates size)” value ([2]; IL 200 μg/mL, no drug, CB pH5) was 2.34 ± 0.66 nm. For the same compound, the “ζ (zeta potential)” value ([2]; IL 200 μg/mL, no drug, CB pH5) was 2.08 ± 0.13 mV, the PDI ([2]; IL 200 μg/mL, no drug, H2O pH4) was 0.01 ± 0.005 and the “Ø (aggregates size)” value ([2]; IL 200 μg/mL, no drug, H2O pH4) was 1.87 ± 0.42 nm. For the same compound, the “ζ (zeta potential)” value ([2]; IL 200 μg/mL, no drug, H2O pH4) was 14.30 ± 2.33 mV, the “surface tension at the CAC (σ)” value [3] was 36.1 mN/m and the “critical aggregation concentration (CAC)” value [3] was 0.226 M and 0.226 ± 0.020 M. For the same compound, the “Relative Viscosity” value [4, 10] was 0.75 ± 0.01 cP, the “Relative Viscosity” value [4, 11] was 1.31 ± 0.26 cP and the bactericidal effect (P. aeruginosa ATCC 27853) was “strong bactericidal effect”. The “CFU after treatment (limit of detection)” value (P. aeruginosa ATCC 27853) was < 100 CFU/mL.
